Assay results published in US20250034135A1, “ANTI-APOPTOTIC PROTEIN BCL-2 INHIBITOR, PHARMACEUTICAL COMPOSITION AND USES THEREOF” (HANGZHOU HEALZEN THERAPEUTICS CO., LTD., priority 2021, published 2025).
Read-outs that look alike come from different tables or passages of the source.

Assays:
RS4; 11 cells = experiment: Tumor proliferation inhibitory activity test (MTS) on RS4; 11; assay type: cell-based; conditions: Homo sapiens, RS4-11, 72 h, 3 days incubation
How it was run: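 RS4;11 cells were exposed to serially diluted compound (0.2% DMSO control) for 3 days at 37 °C/5% CO2, followed by MTS for 3–4 h. Read-out was OD490−OD690, and inhibition was calculated relative to the DMSO and blank wells.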

human CYP3A4 enzyme = human CYP3A4 enzyme (Homo sapiens (Human), UniProt P08684); experiment: CYP3A4 enzyme inhibitory activity (Vivid CYP3A4 Green screening kit)
Experimental: The inhibitory activity of compounds on human CYP3A4 enzyme was detected using a VIVID™ CYP3A4 GREEN SCRNING KIT reagent kit. The Vivid™ CYP450 screening kit includes a Vivid™ substrate, Vivid™ fluorescence standard, reaction buffer, Vivid™ regeneration system, NADP+ and CYP450 BACULOSOMES™ Plus reagent. Operations were performed following the instructions, and a blank control group was set up without adding any compounds.
The IC50 value of the compounds inhibiting human CYP3A4 enzyme was calculated using Graphpad Prism 7.00 software through the formula Y=100/(1+10^((Log IC50−X)*HillSlope)).

BCL2 = BCL2 (Homo sapiens (Human), UniProt P10415); experiment: Molecular level activity test of anti-apoptotic protein BCL2 (HTRF, binding to Bim peptide); conditions: HTRF, binding of BCL2 to Bim peptide; read-out: BCL2 nM (inhibitory activity, IC50)
How it was run: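 HTRF readout; His-BCL2 + biotin-BIM peptide + cpd (2% DMSO in compound addition), 1 h; then anti-His + SA-XL665 detection reagents, 4 h RT.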

BCL-XL = BCL-XL (Homo sapiens (Human), UniProt Q07817); experiment: BCL-XL enzyme molecular level activity test (HTRF, binding to BIM peptide); conditions: binding of BCL-XL to BIM peptide, read-out: BCL-XL inhibitory activity (IC50)
How it was run: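 HTRF binding assay: His-tagged recombinant BCL-XL with biotin-BIM peptide and compound (2% DMSO), 1 h. Anti-His and streptavidin-XL665 detection reagents added, 4 h at room temperature. Excitation 320 nm; 665/615 nm ratio reflects binding, with no-protein background and no-compound full-binding controls.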

BCL2 (D103Y) = BCL2 (D103Y) (Homo sapiens (Human), UniProt P10415, D103Y); experiment: Molecular level activity test of BCL2 (D103Y) (HTRF, binding to Bim peptide); conditions: read-out: BCL-2 (D103Y) (nM) (inhibitory activity, IC50)
How it was run: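 His-tagged recombinant protein mixed with biotinylated BIM peptide and compound (2% DMSO), reacted 1 h. Anti-His and streptavidin-XL665 detection reagents then added and incubated 4 h at room temperature before HTRF read-out of binding inhibition.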

BCL2 (G101V) = BCL2 (G101V) (Homo sapiens (Human), UniProt P10415, G101V); experiment: Molecular level activity test of anti-apoptotic protein BCL2 (G101V) (HTRF, binding to Bim peptide); conditions: inhibition of BCL2 (G101V) binding to Bim peptide, read-out: BCL-2 (G101V)
How it was run: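 His-tagged recombinant BCL2 (G101V) incubated 1 h with biotin-BIM peptide and compound (2% DMSO), then anti-His and streptavidin-XL665 detection reagents added for 4 h at room temperature. HTRF signal reflects compound effect on BCL2–BIM binding.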

human platelets = experiment: Platelet viability test (CTG); assay type: cell-based; conditions: CTG after 24 h
Experimental: After 10 mL of platelet-rich plasma was added to 30 mL of ACD-A solution and uniformly mixed, centrifugation was performed at 1200 g, and the supernatant was discarded; 10 mL of ACD-A solution was added, resuspended, uniformly mixed, and centrifuged at 1200 g for 10 min, and the supernatant was discarded. 5 mL of HEPES-Tyrode's buffer containing 1 μM PGE1 and 0.2 U/mL apyrase was added, slightly inverted, and then centrifuged at 800 g for 5 min, and the supernatant was discarded. 10 mL of HEPES-Tyrode's buffer containing 1 μM PGE1 and 0.2 U/mL apyrase was added, resuspended, and centrifuged at 1000 g for 5 min, and the supernatant was discarded. 2 mL of HEPES-Tyrode's buffer containing 1 μM PGE1+10% FBS-resuspended platelets was added, 200 μL was taken into a centrifuge tube and diluted to 2 mL. Then it was diluted to 1, 0.8, 0.6, 0.4, 0.2, 0.1, 0.08, 0.06, 0.04, 0.02, 0.01 times, the volume was complemented to 100 μL, and 50 μL of CTG reagent was added to detect cell viability. The maximum valid dilution with a fluorescence value not exceeding […] was selected for dilution, 90 μL/well was connected to a 96-well cell plate for chemiluminescence detection. A compound was prepared with HEPES-Tyrode's buffer containing 1 μM of PGE1+10% FBS, and added to the cells, which was gently beaten evenly and detected for cell viability by adding 50 μL CTG after 24 h.

[1] = read-out: CYP3A4 (IC50), Vivid CYP3A4 Green screening kit

Sequence of BCL-XL (Q07817 whole entry): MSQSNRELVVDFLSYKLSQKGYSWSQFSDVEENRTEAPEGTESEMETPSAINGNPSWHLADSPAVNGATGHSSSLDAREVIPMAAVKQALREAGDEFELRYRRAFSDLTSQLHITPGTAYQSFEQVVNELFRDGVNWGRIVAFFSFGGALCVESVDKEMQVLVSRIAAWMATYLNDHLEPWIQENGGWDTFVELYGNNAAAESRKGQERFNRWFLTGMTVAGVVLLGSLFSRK
Sequence of human CYP3A4 enzyme (P08684 whole entry): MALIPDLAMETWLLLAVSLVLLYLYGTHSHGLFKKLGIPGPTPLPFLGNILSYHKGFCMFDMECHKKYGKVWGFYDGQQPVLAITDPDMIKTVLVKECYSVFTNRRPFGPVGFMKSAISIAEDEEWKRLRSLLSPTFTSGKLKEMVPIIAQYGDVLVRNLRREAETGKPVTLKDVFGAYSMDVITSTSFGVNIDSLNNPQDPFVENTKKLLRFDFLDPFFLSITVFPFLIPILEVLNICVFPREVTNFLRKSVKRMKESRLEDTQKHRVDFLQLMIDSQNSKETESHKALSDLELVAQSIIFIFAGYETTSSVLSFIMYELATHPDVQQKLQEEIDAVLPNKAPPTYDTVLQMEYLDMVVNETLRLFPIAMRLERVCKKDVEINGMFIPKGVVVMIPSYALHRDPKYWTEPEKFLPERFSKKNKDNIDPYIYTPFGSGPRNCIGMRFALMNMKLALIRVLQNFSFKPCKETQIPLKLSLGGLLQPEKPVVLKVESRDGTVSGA

Structure (SMILES)	IC50 (RS4; 11 cells)	IC50 (human CYP3A4 enzyme; [1])	IC50 (BCL2)	IC50 (BCL-XL; values in nM)	IC50 (BCL2 (D103Y))	IC50 (BCL2 (G101V))	IC50 (human platelets)	IC50 (human CYP3A4 enzyme)	IC50 (BCL-XL; values given in μM)
COc1ccc(CN2CCN(C3CC4(CCN(c5cc(Oc6cnc7[nH]ccc7c6)c(C(=O)NS(=O)(=O)c6ccc(NCC7(F)CCOCC7)c([N+](=O)[O-])c6)cc5F)CC4)C3)[C@H](c3ccccc3C(C)C)C2)cn1 [compound 242, (R)-2-((1H-pyrrolo[2,3-b]pyrid-5-yl)oxy)-5-fluoro-N-((4-(((4-fluorotetrahydro-2H-pyran-4-yl)methyl)amino)-3-nitrophenyl)sulfonyl)-4-(2-(2-(2-isopropylphenyl)-4-((6-methoxypyrid-3-yl)methyl)piperazin-1-yl)-7-azaspiro[3.5]non-7-yl)benzamide]	< 0.5 nM	> 20000 nM	< 10 nM	> 500 nM	< 10 nM	< 10 nM	> 5000 nM		
CC(C)c1ccccc1[C@@H]1CN(Cc2ccc(F)c(F)c2)CCN1C1CC2(CCN(c3cc(Oc4cnc5[nH]ccc5c4)c(C(=O)NS(=O)(=O)c4ccc(NCC5(F)CCOCC5)c([N+](=O)[O-])c4)cc3F)CC2)C1 [compound 190, (R)-2-((1H-pyrrolo[2,3-b]pyrid-5-yl)oxy)-4-(2-(4-(3,4-difluorobenzyl)-2-(2-isopropylphenyl)piperazin-1-yl)-7-azaspiro[3.5]non-7-yl)-5-fluoro-N-((4-(((4-fluorotetrahydro-2H-pyran-4-yl)methyl)amino)-3-nitrophenyl)sulfonyl)benzamide]	< 0.5 nM			> 500 nM	< 10 nM	< 10 nM	> 5000 nM	> 20000 nM	
COc1ccc(CN2CCN(C3CC4(CCN(c5cc(Oc6cnc7[nH]ccc7c6)c(C(=O)NS(=O)(=O)c6cc([N+](=O)[O-])c(NCC7(F)CCOCC7)c7[nH]cnc67)cn5)CC4)C3)[C@H](c3ccccc3C(C)C)C2)cc1 [compound 268, (R)-4-((1H-pyrrolo[2,3-b]pyrid-5-yl)oxy)-N-((7-(((4-fluorotetrahydro-2H-pyran-4-yl)methyl)amino)-6-nitro-1H-benzo[d]imidazol-4-yl)sulfonyl)-6-(2-(2-(2-isopropylphenyl)-4-(4-methoxybenzyl)piperazin-1-yl)-7-azaspiro[3.5]non-7-yl) nicotinamide]	< 0.5 nM	> 20000 nM	< 10 nM	> 500 nM	< 10 nM	< 10 nM			
COc1ccc(CN2CCN(C3CC4(CCN(c5cc(Oc6cnc7[nH]ccc7c6)c(C(=O)NS(=O)(=O)c6ccc(NCC7(F)CCOCC7)c([N+](=O)[O-])c6)cc5F)CC4)C3)[C@H](c3ccccc3C(C)C)C2)cc1OC [compound 197, (R)-2-((1H-pyrrolo[2,3-b]pyrid-5-yl)oxy)-4-(2-(4-(3,4-dimethoxybenzyl)-2-(2-isopropylphenyl)piperazin-1-yl)-7-azaspiro[3.5]non-7-yl)-5-fluoro-N-((4-(((4-fluorotetrahydro-2H-pyran-4-yl)methyl)amino)-3-nitrophenyl)sulfonyl)benzamide]	< 0.5 nM	> 20000 nM	< 10 nM		< 10 nM	< 10 nM	> 5000 nM		> 1000 nM
COc1cc(CN2CCN(C3CC4(CCN(c5cc(Oc6cnc7[nH]ccc7c6)c(C(=O)NS(=O)(=O)c6ccc(NCC7(F)CCOCC7)c([N+](=O)[O-])c6)cc5F)CC4)C3)[C@H](c3ccccc3C(C)C)C2)ccc1CN(C)C [compound 247, (R)-2-((1H-pyrrolo[2,3-b]pyrid-5-yl)oxy)-4-(2-(4-(4-((dimethylamino)methyl)-3-methoxybenzyl)-2-(2-isopropylphenyl)piperazin-1-yl)-7-azaspiro[3.5]non-7-yl)-5-fluoro-N-((4-(((4-fluorotetrahydro-2H-pyran-4-yl)methyl)amino)-3-nitrophenyl)sulfonyl)benzamide]	0.5 to 1 nM		< 10 nM	> 500 nM	< 10 nM	< 10 nM	> 5000 nM		
COc1ccc(CN2CCN(C3CC4(CCN(c5cc(Oc6cnc7[nH]ccc7c6)c(C(=O)NS(=O)(=O)c6cc([N+](=O)[O-])c(NC[C@H]7CC[C@](C)(O)CC7)c7[nH]cnc67)cc5F)CC4)C3)[C@H](c3ccccc3C(C)C)C2)cc1 [compound 262, 2-((1H-pyrrolo[2,3-b]pyrid-5-yl)oxy)-5-fluoro-N-((7-((((1r,4r)-4-hydroxy-4-methylcyclohexyl)methyl)amino)-6-nitro-1H-benzo[d]imidazol-4-yl)sulfonyl)-4-(2-((R)-2-(2-isopropylphenyl)-4-(4-methoxybenzyl)piperazin-1-yl)-7-azaspiro[3.5]non-7-yl)benzamide]	0.5 to 1 nM	> 20000 nM	< 10 nM		< 10 nM	< 10 nM			> 1000 nM
COc1ccc(CN2CCN(C3CC4(CCN(c5cc(Oc6cnc7[nH]ccc7c6)c(C(=O)NS(=O)(=O)c6ccc(NC[C@H]7COCCO7)c([N+](=O)[O-])c6)cc5F)CC4)C3)[C@H](c3ccccc3C(C)C)C2)cc1 [compound 241, N-((4-((((S)-1,4-dioxan-2-yl)methyl)amino)-3-nitrophenyl)sulfonyl)-2-((1H-pyrrolo[2,3-b]pyrid-5-yl)oxy)-5-fluoro-4-(2-((R)-2-(2-isopropylphenyl)-4-(4-methoxybenzyl)piperazin-1-yl)-7-azaspiro[3.5]non-7-yl)benzamide]	< 0.5 nM		< 10 nM	> 500 nM	< 10 nM	< 10 nM	> 5000 nM		
COc1ccc(CN2CCN(C3CC4(CCN(c5cc(Oc6cnc7[nH]ccc7c6)c(C(=O)NS(=O)(=O)c6ccc(NCC7CCOCC7)c([N+](=O)[O-])c6)cc5F)CC4)C3)[C@H](c3ccccc3C(C)C)C2)cc1 [compound 239, (R)-2-((1H-pyrrolo[2,3-b]pyrid-5-yl)oxy)-5-fluoro-4-(2-(2-(2-isopropylphenyl)-4-(4-methoxybenzyl)piperazin-1-yl)-7-azaspiro[3.5]non-7-yl)-N-((3-nitro-4-(((tetrahydro-2H-pyran-4-yl)methyl)amino)phenyl)sulfonyl)benzamide]	< 0.5 nM	> 20000 nM	< 10 nM	> 500 nM		< 10 nM	> 5000 nM		
COc1ccc(CN2CCN(C3CC4(CCN(c5cc(Oc6cnc7[nH]cc(F)c7c6)c(C(=O)NS(=O)(=O)c6ccc(NCC7(F)CCOCC7)c([N+](=O)[O-])c6)cc5F)CC4)C3)[C@H](c3ccccc3C(C)C)C2)cc1 [compound 252, (R)-5-fluoro-2-((3-fluoro-1H-pyrrolo[2,3-b]pyrid-5-yl)oxy)-N-((4-(((4-fluorotetrahydro-2H-pyran-4-yl)methyl)amino)-3-nitrophenyl)sulfonyl)-4-(2-(2-(2-isopropylphenyl)-4-(4-methoxybenzyl)piperazin-1-yl)-7-azaspiro[3.5]non-7-yl)benzamide]	0.5 to 1 nM		< 10 nM	> 500 nM	< 10 nM	< 10 nM	> 5000 nM		
